Structures are written as SMILES. Calls of active or inactive are those of the source.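 How the source made its calls: active means IC50 at or below 10 µM; inactive means IC50 above 10 µM.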

Among the data in PubChem BioAssay AID743283 (The Scripps Research Institute Molecular Screening Center, 2014) are IC50 values, retold here.

The test system of the experiment is HEK293 Gal4-VP16 luciferase reporter counterscreen. The experiment in a line: Gal4-VP16 luciferase reporter inhibitors, late-stage follow-up, counter-screen for COUP-TFII inhibitor project, cell-based, luminescence, HEK293, powder samples, round 000 (AID 743283).
Consider `COc1ccc(OC)c(CCNC(=O)Cn2nc(C)c3c(C)n(-c4ccc(C)cc4)nc3c2=O)c1`, for which the IC50 (as a rule, the concentration at which inhibition is half-maximal) is > 28.5 µM (inactive).
With `COc1ccc(CCNc2ncnc3sccc23)cc1OC` the figure was > 85.4 µM (inactive); with `Cc1nn(C)c(C)c1CN(C)S(=O)(=O)c1ccc2ccccc2c1`, > 85.4 µM (inactive).
On to `COc1ccc(C2=Nn3c([n+](C)c4ccccc43)SC2)cc1`, for which the IC50 is > 85.4 µM (inactive).
For the compound `Cn1nccc1C(=O)NC1CCCc2c1cnn2-c1ccc(C(C)(C)C)cc1` (centres undefined), the IC50 was > 85.4 µM (inactive).
Next, `COc1ccc(NS(=O)(=O)c2cccc(NC(=O)c3ccc(Cl)nc3)c2)cc1`: > 28.5 µM (inactive).
Regarding `COc1ccc(NS(=O)(=O)c2ccc(-c3coc(C)n3)cc2)cc1OC`, the IC50 was > 85.4 µM (inactive).
Next, `CC(Nc1ncnc2ccccc12)c1ccccc1` (centres undefined): > 85.4 µM (inactive); `CC1Cc2cc(-c3csc(NC(=O)Cc4cccs4)n3)ccc2N1S(C)(=O)=O` (centres undefined): 11.5 µM (inactive); `CCOC(=O)N1CCN(C(=O)CSCC(=O)Nc2nc(-c3ccc(-c4ccccc4)cc3)cs2)CC1`: 33.9 µM (inactive).
On to `Cc1cc(-n2c(C)cc(C(=O)CSc3ncnc4ccccc34)c2C)no1`, for which the IC50 is > 85.4 µM (inactive).
Turning to `CCOC(=O)C1CCCN(S(=O)(=O)c2ccc(S(=O)(=O)N(CC)CC)cc2)C1` (centres undefined), the IC50 is > 85.4 µM (inactive).
`Cc1ccc(S(=O)(=O)CC2CSc3nc4ccccc4n32)cc1` (centres undefined): the IC50 was > 85.4 µM (inactive).
Turning to `O=C(Nc1ccncc1)c1ccc(Cl)c(S(=O)(=O)N2CCc3ccccc32)c1`, the IC50 was 37 µM (inactive).
With `Cc1cc(-n2nc3ccccc3n2)c2oc(SCC(=O)NC(C)(C)C)nc2c1` the figure was 79.3 µM (inactive); with `COc1ccc(CCNc2ncnc3sc(C)cc23)cc1OC`, 30.2 µM (inactive).
With `Cc1cc(C)c(S(=O)(=O)NCc2ccncc2)c(C)c1`, the IC50 is > 85.4 µM (inactive).
`Cc1oc(-c2ccc(Cl)cc2)nc1CS(=O)CC(=O)NCCCN1CCN(Cc2ccccc2)CC1` (centres undefined): the IC50 is > 28.5 µM (inactive).
Next, `CC(=O)Nc1ccccc1OCC(=O)c1cc(C)n(Cc2cccs2)c1C`: 8.67 µM; `Cc1sc2ncnc(NCC3COc4ccccc4O3)c2c1C` (centres undefined): > 85.4 µM (inactive); `CCOc1cc(S(=O)(=O)NCc2ccncc2)ccc1Cl`: > 85.4 µM (inactive).
On to `CCN(CC)S(=O)(=O)c1cccc(NC(=O)CNc2cccc(S(=O)(=O)N3CCCC3)c2)c1`, for which the IC50 was > 85.4 µM (inactive).
As to `Clc1ccc(OCCN2CCN(c3ncnc4sccc34)CC2)cc1`, the IC50 was > 85.4 µM (inactive).
For the compound `Cc1ccc(OCCN2CCN(c3ncnc4sc(C)c(C)c34)CC2)cc1`, the IC50 was > 85.4 µM (inactive).
`O=S(=O)(NCC1CCCO1)c1ccc(-c2ccc(S(=O)(=O)NCC3CCCO3)cc2)cc1` (centres undefined): the IC50 was > 85.4 µM (inactive).
With `CN(CC1CCCO1)S(=O)(=O)c1ccc(C(=O)Nc2nc3cc4c(cc3s2)OCO4)cc1` (centres undefined), the IC50 is > 42.7 µM (inactive).
For `CCC1CCCCN1C(=O)c1cc(COc2ccc3ncccc3c2)on1` (centres undefined), the IC50 is > 85.4 µM (inactive).
With `COc1ccc(CN(C)c2ccc(S(=O)(=O)N3CCN(C)CC3)cc2[N+](=O)[O-])cc1OC`, the IC50 was > 85.4 µM (inactive).
In the case of `Cc1sc2ncnc(NCCc3ccc(S(N)(=O)=O)cc3)c2c1C`, the IC50 is > 85.4 µM (inactive).
